Where a SMILES comes first, the peptide text is derived from it. Bridges are numbered along the chain shown (N, C = ends). Where no end group is shown, it is not given here.
Test system: S. simulans 22
Experiment: MIC assays under standard conditions
Assay type: cell-based, Staphylococcus simulans
Conditions: for Minimum inhibitory concentration, S. simulans: Supplementary Table 1, cation-adjusted MHB, 37 °C, 16–20 h
Method: Plectasin and analogues were serially diluted in cation-adjusted Mueller–Hinton broth (MHB) in round-bottom polypropylene 96-well plates (50 µl per well). Selected bacterial strains were grown from glycerol stocks on blood agar plates. Individual colonies were inoculated in TSB and incubated at 37 °C while shaking until OD600 reached 0.5. Bacterial suspensions were then diluted 100 times in cation-adjusted MHB and distributed (50 μl per well) over the microplate containing the diluted plectasin solutions. Plates were covered by a gas-permeable adhesive membrane and incubated at 37 °C while shaking. MICs were determined by visual inspection after 16–20 h (Staphylococcus) or 20–24 h (Streptococcus). For Streptococcus strains, the broth was additionally supplemented with 5% lysed horse blood, and the microplates were incubated under 5% CO2 atmosphere. In the assays, we used the following strains: S. simulans, S. pneumoniae serotype 8, S. pneumoniae ATCC6305 and Streptococcus pyogenes M3.

Compound	Minimum inhibitory concentration, S. simulans	MIC towards S. simulans as quoted in Extended Data Fig. 8 (legend of the permeabilization assays) [µM]
CC[C@H](C)[C@@H]1NC(=O)[C@H](CO)NC(=O)[C@H](CCCCN)NC(=O)[C@@H]2CSSC[C@@H](C(=O)N[C@@H](Cc3ccc(O)cc3)C(=O)O)NC(=O)[C@H](CCCCN)NC(=O)[C@@H]3CSSC[C@H](NC(=O)[C@H](CCC(N)=O)NC(=O)[C@H](CCSC)NC(=O)[C@H](CC(=O)O)NC(=O)[C@H](CC(=O)O)NC(=O)[C@H](CCC(=O)O)NC(=O)[C@H](CC(=O)O)NC(=O)[C@H](Cc4c[nH]c5ccccc45)NC(=O)[C@@H]4CCCN4C(=O)CNC(=O)[C@H](CC(N)=O)NC(=O)[C@@H](NC(=O)CNC(=O)[C@H](Cc4ccccc4)NC(=O)CN)CSSC[C@H](NC(=O)[C@H](Cc4ccc(O)cc4)NC(=O)CNC(=O)CNC(=O)[C@H](CCCCN)NC(=O)[C@H](CC(C)C)NC(=O)CNC(=O)[C@H](CCCCN)NC1=O)C(=O)N[C@@H](C)C(=O)N[C@@H](CCCCN)C(=O)NCC(=O)NCC(=O)N[C@@H](Cc1ccccc1)C(=O)N[C@@H](C(C)C)C(=O)N3)C(=O)N[C@@H](Cc1c[nH]cn1)C(=O)N[C@@H](CC(N)=O)C(=O)N[C@@H](Cc1c[nH]cn1)C(=O)N2 [Y25L] (H-GFGCNGPWDEDDMQCHNHCKSIKGLKGGYCAKGGFVCKCY-OH; disulfide 4-30, 15-37, 19-39 (inferred); N-terminus and C-terminus assumed)	3,13 μg/mL	–
CC[C@H](C)[C@@H]1NC(=O)[C@H](CO)NC(=O)[C@H](CCCCN)NC(=O)[C@@H]2CSSC[C@@H](C(=O)N[C@@H](Cc3ccc(O)cc3)C(=O)O)NC(=O)[C@H](CCCCN)NC(=O)[C@@H]3CSSC[C@H](NC(=O)[C@H](CCC(N)=O)NC(=O)[C@H](CCSC)NC(=O)[C@H](CC(=O)O)NC(=O)[C@H](CC(=O)O)NC(=O)[C@H](CCC(=O)O)NC(=O)[C@H](CC(=O)O)NC(=O)[C@H](Cc4c[nH]c5ccccc45)NC(=O)[C@@H]4CCCN4C(=O)CNC(=O)[C@H](CC(N)=O)NC(=O)[C@@H](NC(=O)CNC(=O)[C@H](Cc4ccccc4)NC(=O)CN)CSSC[C@H](NC(=O)[C@H](Cc4ccc(O)cc4)NC(=O)CNC(=O)CNC(=O)[C@H](CCCCN)NC(=O)[C@H](C(C)C)NC(=O)CNC(=O)[C@H](CCCCN)NC1=O)C(=O)N[C@@H](C)C(=O)N[C@@H](CCCCN)C(=O)NCC(=O)NCC(=O)N[C@@H](Cc1ccccc1)C(=O)N[C@@H](C(C)C)C(=O)N3)C(=O)N[C@@H](Cc1c[nH]cn1)C(=O)N[C@@H](CC(N)=O)C(=O)N[C@@H](Cc1c[nH]cn1)C(=O)N2 [Y25V] (H-GFGCNGPWDEDDMQCHNHCKSIKGVKGGYCAKGGFVCKCY-OH; disulfide 4-30, 15-37, 19-39 (inferred); N-terminus and C-terminus assumed)	6,25 μg/mL	–
nisin (ITSISLCTPGCKTGALMGCNMKTATCHCSIHVSK; not fully specified (some residues, bridges); also: lantibiotic nisin-A (thioether rings, dehydro residues) not placed; UniProt P13068 24-57, looked up) [reference compound]	–	0.075
